Laboratory results reported in PMC5704298 (ACS Central Science, 2017).

Legend:
[1] = system: ALK phosphorylation in NCI-H2228 and Karpas-299 cell lines; assay: Immunoblot of ALK phosphorylation and downstream signaling; type: cell-based; conditions: 2 h, dose-dependent
[2] = system: patients without treatment with other ALK inhibitors; conditions: phase I study, 24 patients, cited from earlier work

SMILES | autophosphorylation of ALK; phosphorylation of AKT and STAT3 (immunoblot) [1] | ORR, ALK+ patients ([2]; ALK+) [%] | ORR, NRTK1–3+ patients ([2]; NRTK1–3+) [%] | ORR, ROS1+ patients ([2]; ROS1+) [%]
Cc1cc(Nc2ncc(Cl)c(Nc3ccccc3S(=O)(=O)C(C)C)n2)c(OC(C)C)cc1C1CCNCC1 [Ceritinib] | can inhibit autophosphorylation of ALK |  |  | 
CN1CCN(c2ccc(C(=O)Nc3n[nH]c4ccc(Cc5cc(F)cc(F)c5)cc34)c(NC3CCOCC3)c2)CC1 [entrectinib] |  | 57 | 100 | 85
